# ChEMBL document CHEMBL1137314, “Small-molecule inhibitors of the MDM2-p53 protein-protein interaction based on an isoindolinone scaffold” (J Med Chem, 2006)
# Activity calls are given as the source filed them. The rule behind the calls is not given here.
# System: SJSA-1
# Test: Increase of p53 protein level in SJSA cell line by Western blot analysis
# Format: functional, cell-based
# Settings: Homo sapiens
row,SMILES,Activity
1,O=C1c2ccccc2C(OCCCO)(c2ccc(Cl)cc2)N1Cc1ccccc1 (stereo unspecified),inactive
2,CCCN1C(=O)c2ccccc2C1(OCc1cc(OC)c(O)c(OC)c1)c1ccc(Cl)cc1 (stereo unspecified),inactive

# Target: Tumour suppressor p53/oncoprotein Mdm2 (Homo sapiens) (UniProt P04637+Q00987)
# Test: Induction of p53 dependent transcription in SJSA cell line by reporter gene assay
# Format: functional, cell-based
# Settings: SJSA-1
# Sequence of Tumour suppressor p53/oncoprotein Mdm2 (Homo sapiens) (P04637 whole entry, looked up): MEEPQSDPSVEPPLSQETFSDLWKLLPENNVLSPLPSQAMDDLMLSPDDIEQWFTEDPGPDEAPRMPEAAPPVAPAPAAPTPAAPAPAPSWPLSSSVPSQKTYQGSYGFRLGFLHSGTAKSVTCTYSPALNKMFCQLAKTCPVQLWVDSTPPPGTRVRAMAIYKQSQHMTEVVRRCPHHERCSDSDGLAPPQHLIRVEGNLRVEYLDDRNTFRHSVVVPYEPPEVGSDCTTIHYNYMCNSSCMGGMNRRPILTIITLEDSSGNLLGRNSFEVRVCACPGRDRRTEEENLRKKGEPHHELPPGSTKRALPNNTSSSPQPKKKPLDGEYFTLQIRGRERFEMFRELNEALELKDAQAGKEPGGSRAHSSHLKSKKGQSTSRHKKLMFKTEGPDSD
# Sequence of Tumour suppressor p53/oncoprotein Mdm2 (Homo sapiens) (Q00987 whole entry, looked up): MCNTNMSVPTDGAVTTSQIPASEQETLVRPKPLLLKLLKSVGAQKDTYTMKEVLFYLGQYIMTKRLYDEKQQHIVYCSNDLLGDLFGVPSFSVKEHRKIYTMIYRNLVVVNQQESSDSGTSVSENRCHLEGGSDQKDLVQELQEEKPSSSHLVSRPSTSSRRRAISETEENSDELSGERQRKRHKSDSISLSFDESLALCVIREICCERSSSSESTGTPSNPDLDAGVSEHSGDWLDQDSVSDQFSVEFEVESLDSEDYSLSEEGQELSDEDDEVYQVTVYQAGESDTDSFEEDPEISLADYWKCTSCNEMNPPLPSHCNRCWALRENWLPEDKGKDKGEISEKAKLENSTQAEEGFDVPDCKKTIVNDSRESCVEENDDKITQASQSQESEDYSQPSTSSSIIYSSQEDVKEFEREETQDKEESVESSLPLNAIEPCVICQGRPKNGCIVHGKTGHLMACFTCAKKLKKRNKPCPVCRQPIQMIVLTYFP
row,Activity,SMILES
1,Dose-dependent effect,O=C1c2ccccc2C(OCCCO)(c2ccc(Cl)cc2)N1Cc1ccccc1 (stereo unspecified)
2,Dose-dependent effect,CCCN1C(=O)c2ccccc2C1(OCc1cc(OC)c(O)c(OC)c1)c1ccc(Cl)cc1 (stereo unspecified)

# Target: Tumour suppressor p53/oncoprotein Mdm2 (Homo sapiens, UniProt Q00987)
# Test: Inhibition of p53-MDM2 interaction by ELISA
# Format: protein assay
# Settings: not given
# Sequence of Tumour suppressor p53/oncoprotein Mdm2 (P04637 whole entry): as the sequence (P04637 whole entry, looked up) above
# Sequence of Tumour suppressor p53/oncoprotein Mdm2 (Q00987 whole entry): as the sequence (Q00987 whole entry, looked up) above
row,IC50 [µM],SMILES
1,413,CCCOC1(c2ccccc2)c2ccccc2C(=O)N1Cc1ccc(OC)cc1 (stereo unspecified)
2,227,O=C1c2ccccc2C(NCC(O)c2ccc(O)cc2)(c2ccccc2)N1Cc1ccccc1 (stereo unspecified)
3,290,CCCN1C(=O)c2ccccc2C1(OCCS(C)(=O)=O)c1ccc(C(C)(C)C)cc1 (stereo unspecified)
4,311,COc1ccc(CCOC2(c3ccccc3)c3ccccc3C(=O)N2Cc2ccccc2)cc1OC (stereo unspecified)
5,> 500,CC(=O)NCCNC1(c2ccccc2)c2ccccc2C(=O)N1Cc1ccccc1 (stereo unspecified)
6,85,O=C1c2ccccc2C(NC(CO)C(O)c2ccccc2)(c2ccccc2)N1Cc1ccccc1 (stereo unspecified)
7,70.1,CCCN1C(=O)c2ccccc2C1(OCCNC(=O)c1ccccc1O)c1ccc(C(C)(C)C)cc1 (stereo unspecified)
8,70,CCCOC1(c2ccccc2)c2ccccc2C(=O)N1CCCC(OC)OC (stereo unspecified)
9,103,C=C(C)C(=O)OCCN1C(=O)c2ccccc2C1(N[C@@H](CO)[C@@H](O)c1ccccc1)c1ccccc1 (stereo partly specified)
10,284,O=C1c2ccccc2C(OCc2cccc([N+](=O)[O-])c2)(c2ccccc2)N1Cc1ccccc1 (stereo unspecified)
11,189,O=C1c2ccccc2C(=O)N1CCCOC1(c2ccccc2)c2ccccc2C(=O)N1Cc1ccccc1 (stereo unspecified)
12,330,COC(=O)[C@@H](C)COC1(c2ccccc2)c2ccccc2C(=O)N1Cc1ccccc1 (stereo partly specified)
13,190,N#CCCNC1(c2ccccc2)c2ccccc2C(=O)N1Cc1ccccc1 (stereo unspecified)
14,> 500,O=C1c2ccccc2C(NCCO)(c2ccccc2)N1Cc1ccccc1 (stereo unspecified)
15,69.7,CCCN1C(=O)c2ccccc2C1(OCCc1ccc(O)cc1)c1ccc(C(C)(C)C)cc1 (stereo unspecified)
16,78,CCCCc1ncc(COC2(c3ccccc3)c3ccccc3C(=O)N2Cc2ccccc2)[nH]1 (stereo unspecified)
17,409,O=C1c2ccccc2C(OCCNC(=O)C(F)(F)F)(c2ccccc2)N1Cc1ccccc1 (stereo unspecified)
18,221,O=C1c2ccccc2C(OCCOc2ccccc2O)(c2ccccc2)N1Cc1ccccc1 (stereo unspecified)
19,152,O=C1c2ccccc2C(=O)N1CCOC1(c2ccccc2)c2ccccc2C(=O)N1Cc1ccccc1 (stereo unspecified)
20,> 500,COC(=O)CCNC1(c2ccccc2)c2ccccc2C(=O)N1Cc1ccccc1 (stereo unspecified)
21,191,CN(CCOC1(c2ccccc2)c2ccccc2C(=O)N1Cc1ccccc1)c1ccc(C=O)cc1 (stereo unspecified)

row,IC50 [µM],SMILES
1,> 500,COC(=O)COC1(c2ccccc2)c2ccccc2C(=O)N1Cc1ccccc1 (stereo unspecified)
2,> 200,CCCOC1(c2ccccc2)c2ccccc2C(=O)N1CCC (stereo unspecified)
3,84,O=C1c2ccccc2C(NCC(O)c2cccc(O)c2)(c2ccccc2)N1Cc1ccccc1 (stereo unspecified)
4,90,CCCOC1(c2ccccc2)c2ccccc2C(=O)N1[C@H](C(=O)OC)c1ccc(O)cc1 (stereo partly specified)
5,58,O=C1c2ccccc2C(OCc2cccc(O)c2)(c2ccccc2)N1Cc1ccccc1 (stereo unspecified)
6,> 200,CCCOC1(c2ccccc2)c2ccccc2C(=O)N1Cc1ccccc1 (stereo unspecified)
7,> 500,CCOC(=O)CCC(NC1(c2ccccc2)c2ccccc2C(=O)N1Cc1ccccc1)C(=O)OCC (stereo unspecified)
8,326,COc1ccc([C@@H](O)COC2(c3ccccc3)c3ccccc3C(=O)N2CCCO)cc1 (stereo partly specified)
9,278,O=C(NCCOC1(c2ccccc2)c2ccccc2C(=O)N1Cc1ccccc1)c1ccncc1 (stereo unspecified)
10,200,CCCNC1(c2ccccc2)c2ccccc2C(=O)N1Cc1ccccc1 (stereo unspecified)
11,> 500,O=C1c2ccccc2C(OCCc2ccccc2)(c2ccccc2)N1Cc1ccccc1 (stereo unspecified)
12,181,COc1ccc([C@@H](O)COC2(c3ccccc3)c3ccccc3C(=O)N2Cc2ccco2)cc1 (stereo partly specified)
13,353,C=C(C)C(=O)OCCNC1(c2ccccc2)c2ccccc2C(=O)N1Cc1ccccc1 (stereo unspecified)
14,232,Cc1ccc([N+](=O)[O-])c(COC2(c3ccccc3)c3ccccc3C(=O)N2Cc2ccccc2)c1 (stereo unspecified)
15,281,CC(=O)NCCOC1(c2ccccc2)c2ccccc2C(=O)N1Cc1ccccc1 (stereo unspecified)
16,185,CC(NC1(c2ccccc2)c2ccccc2C(=O)N1Cc1ccccc1)C(O)c1ccc(O)cc1 (stereo unspecified)
17,206,O=C1c2ccccc2C(OCc2ccc(Cl)c([N+](=O)[O-])c2)(c2ccccc2)N1Cc1ccccc1 (stereo unspecified)
18,79,CCCOC1(c2ccccc2)c2ccccc2C(=O)N1[C@@H](CCCCN)C(=O)OC (stereo partly specified)
19,> 500,CCCOC1(c2ccccc2)c2ccccc2C(=O)N1CCO (stereo unspecified)
20,476,C[Si](C)(C)CCOCOc1ccc(C2(OCCCO)c3ccccc3C(=O)N2Cc2ccccc2)cc1 (stereo unspecified)
21,380,COC(=O)C(Cc1ccc(O)cc1)N1C(=O)c2ccccc2C1(OCCOC(C)=O)c1ccccc1 (stereo unspecified)

row,IC50 [µM],SMILES
1,74.3,CCCN1C(=O)c2ccccc2C1(OCCN1CCNC1=O)c1ccc(C(C)(C)C)cc1 (stereo unspecified)
2,345,O=C1c2ccccc2C(OCCS(=O)(=O)O)(c2ccccc2)N1Cc1ccccc1 (stereo unspecified)
3,97,O=Cc1ccc(COC2(c3ccccc3)c3ccccc3C(=O)N2Cc2ccccc2)o1 (stereo unspecified)
4,243,Cc1cccc(N(CCC#N)CCOC2(c3ccccc3)c3ccccc3C(=O)N2Cc2ccccc2)c1 (stereo unspecified)
5,408,C=CCNC(=S)NCCOC1(c2ccccc2)c2ccccc2C(=O)N1Cc1ccccc1 (stereo unspecified)
6,70.2,CCCN1C(=O)c2ccccc2C1(OCc1cc2c(cc1[N+](=O)[O-])OCO2)c1ccc(C(C)(C)C)cc1 (stereo unspecified)
7,> 500,O=C1c2ccccc2C(OCc2ccco2)(c2ccccc2)N1Cc1ccccc1 (stereo unspecified)
8,85,O=C1c2ccccc2C(N[C@@H](CO)[C@@H](O)c2ccccc2)(c2ccccc2)N1Cc1ccccc1 (stereo partly specified)
9,> 500,O=C1c2ccccc2C(OCCN2CCOCC2)(c2ccccc2)N1Cc1ccccc1 (stereo unspecified)
10,439,C=CC(=O)OCCOC1(c2ccccc2)c2ccccc2C(=O)N1Cc1ccccc1 (stereo unspecified)
11,275,COC(=O)C(Cc1ccc(O)cc1)N1C(=O)c2ccccc2C1(OCCn1c([N+](=O)[O-])cnc1C)c1ccccc1 (stereo unspecified)
12,64.3,CCCN1C(=O)c2ccccc2C1(OCc1[nH]cnc1C)c1ccc(C(C)(C)C)cc1 (stereo unspecified)
13,490,COCCOC1(c2ccccc2)c2ccccc2C(=O)N1Cc1ccccc1 (stereo unspecified)
14,96,O=C(NCCOC1(c2ccccc2)c2ccccc2C(=O)N1Cc1ccccc1)c1ccc(O)cc1O (stereo unspecified)
15,284,O=C1CCC(=O)N1CCOC1(c2ccccc2)c2ccccc2C(=O)N1Cc1ccccc1 (stereo unspecified)
16,334,O=C1c2ccccc2C(OC/C=C/c2ccccc2)(c2ccccc2)N1Cc1ccccc1 (stereo unspecified)
17,79,O=C1c2ccccc2C(OCc2ccc(O)cc2)(c2ccccc2)N1Cc1ccccc1 (stereo unspecified)
18,88,COC(=O)C(Cc1ccc(O)cc1)N1C(=O)c2ccccc2C1(OCCN(CCC#N)c1ccccc1)c1ccccc1 (stereo unspecified)
19,> 500,NC(=O)COC1(c2ccccc2)c2ccccc2C(=O)N1Cc1ccccc1 (stereo unspecified)
20,393,O=C1CCCN1CCOC1(c2ccccc2)c2ccccc2C(=O)N1Cc1ccccc1 (stereo unspecified)

row,SMILES,IC50 [µM]
1,CCCN1C(=O)c2ccccc2C1(OCc1cc([N+](=O)[O-])c(C)c([N+](=O)[O-])c1)c1ccc(OCOCC[Si](C)(C)C)cc1 (stereo unspecified),103

# System: SJSA-1
# Test: Increase of p21 protein level in SJSA cell line by Western blot analysis
# Format: functional, cell-based
# Settings: Homo sapiens
row,SMILES,Activity
1,O=C1c2ccccc2C(OCCCO)(c2ccc(Cl)cc2)N1Cc1ccccc1 (stereo unspecified),Dose-dependent effect
2,CCCN1C(=O)c2ccccc2C1(OCc1cc(OC)c(O)c(OC)c1)c1ccc(Cl)cc1 (stereo unspecified),Dose-dependent effect

# System: SJSA-1
# Test: Increase of MDM2 protein level in SJSA cell line by Western blot analysis
# Format: functional, cell-based
# Settings: Homo sapiens
row,SMILES,Activity
1,O=C1c2ccccc2C(OCCCO)(c2ccc(Cl)cc2)N1Cc1ccccc1 (stereo unspecified),Dose-dependent effect
2,CCCN1C(=O)c2ccccc2C1(OCc1cc(OC)c(O)c(OC)c1)c1ccc(Cl)cc1 (stereo unspecified),Dose-dependent effect
